# According to the Deep4Chem optical property database:
# Assay: photoluminescence quantum yield (fraction); solvent given as SMILES
structure (smiles),measurement,setting,value
COc1cc2c(cc1OC)C1=C[C@H](c3ccccc3)C3(C(C#N)=C(C#N)N1CC2)c1ccccc1-c1ccccc13,photoluminescence quantum yield,in ClCCl,0.00173
Cn1cc(-c2nc3ccccc3nc2/C=C/N2CCCC2)c2ccccc21,photoluminescence quantum yield,in C1CCCCC1,0.126
same,photoluminescence quantum yield,in C1CCOC1,0.444
same,photoluminescence quantum yield,in CC#N,0.43
same,photoluminescence quantum yield,in CC(C)=O,0.456
same,photoluminescence quantum yield,in CCO,0.048
same,photoluminescence quantum yield,in CO,0.012
same,photoluminescence quantum yield,in CS(C)=O,0.496
same,photoluminescence quantum yield,in Cc1ccccc1,0.375
same,photoluminescence quantum yield,in ClCCl,0.579
COC(=O)c1ccc(C#Cc2ccccc2)cc1,photoluminescence quantum yield,in C1CCCCC1,0.421
same,photoluminescence quantum yield,in CC#N,0.277
same,photoluminescence quantum yield,in CC(C)O,0.398
same,photoluminescence quantum yield,in CCCCCC,0.42
same,photoluminescence quantum yield,in CCCCCCCCCCCCCCCC,0.429
same,photoluminescence quantum yield,in CCCCCCCCCCCCCCCCCl,0.441
same,photoluminescence quantum yield,in CO,0.305
CC1=CC2=Nc3nc(C)[n+](C)cc3CN2C=C1,photoluminescence quantum yield,in CC#N,0.85
same,photoluminescence quantum yield,in CCO,0.86
same,photoluminescence quantum yield,in O,0.79
Cc1ccc(O)c(-c2nc(C)c3n2CCCC3)c1,photoluminescence quantum yield,in ClCCl,0.43
COC(=O)c1[nH]c(-c2ccc([N+](=O)[O-])cc2)c2nnc3ccc(OC)cc3c12,photoluminescence quantum yield,in ClCCl,0.262
CCCCn1c2ccccc2c2ccc(C#Cc3ccc4ccc5cccc6ccc3c4c56)cc21,photoluminescence quantum yield,in ClCCl,0.62
CC(C)(C)c1ccc(-c2c3ccccc3c3n2[B-](F)(F)[N+]2=Cc4c5ccccc5c(-c5ccc(C(C)(C)C)cc5)n4[B-](F)(F)[N+]2=C3)cc1,photoluminescence quantum yield,in CC#N,0.26
same,photoluminescence quantum yield,in CCCCCC,0.34
same,photoluminescence quantum yield,in CN(C)C=O,0.28
same,photoluminescence quantum yield,in Cc1ccccc1,0.34
same,photoluminescence quantum yield,in ClCCl,0.34
c1ccc2c(c1)Cc1ccccc1N2c1c2ccccc2c(N2c3ccccc3Cc3ccccc32)c2ccccc12,photoluminescence quantum yield,in Cc1ccccc1,0.06
CC(C)(C)c1ccc(Oc2cc3c4c(cc(Oc5ccc(C(C)(C)C)cc5)c5c6c(Oc7ccc(C(C)(C)C)cc7)cc7c8c(cc(Oc9ccc(C(C)(C)C)cc9)c(c2c45)c86)C(=O)N(c2ccccc2)C7=O)C(=O)N(c2ccccc2)C3=O)cc1,photoluminescence quantum yield,in ClC(Cl)Cl,0.86
CC1(C)c2ccccc2N(c2ccc3c(c2)-c2cc(N4c5ccccc5C(C)(C)c5ccccc54)ccc2P3(=O)c2ccccc2)c2ccccc21,photoluminescence quantum yield,in Cc1ccccc1,0.55
same,photoluminescence quantum yield,in c1ccc2c(c1)c1ccccc1n2-c1ccc(-c2ccc(-n3c4ccccc4c4ccccc43)cc2)cc1,0.56
c1ccc(-c2c3ccccc3c(-c3ncccn3)c3ccccc23)cc1,photoluminescence quantum yield,in CCO,0.08
same,photoluminescence quantum yield,in ClCCl,0.16
C[N+]1=C(/C=C/C2=C3Oc4c(cc5c6c4CCCN6CCC5)C(c4ccccc4C(=O)O)=C3CCC2)C(C)(C)c2ccccc21,photoluminescence quantum yield,in CC#N,0.25
same,photoluminescence quantum yield,in CCO,0.34
same,photoluminescence quantum yield,in CO,0.35
same,photoluminescence quantum yield,in ClC(Cl)Cl,0.51
CCCCN1c2ccc(/C=C/c3cc(=O)oc4cc(C)ccc34)cc2Sc2cc(/C=C/c3cc(=O)oc4cc(C)ccc34)ccc21,photoluminescence quantum yield,in ClC(Cl)Cl,0.83
COc1cc(C)c(-c2cc(-c3c(C)cc(OC)cc3C)c3ccc4c(-c5c(C)cc(OC)cc5C)cc(-c5c(C)cc(OC)cc5C)c5ccc2c3c54)c(C)c1,photoluminescence quantum yield,in ClCCl,0.38
CSC1=C2C=C(c3cc4n(c3)[B-](F)(F)[N+]3=CC=CC3=C4c3c(C)cc(C)cc3C)C(C)=[N+]2[B-](F)(F)n2c(C)ccc21,photoluminescence quantum yield,in C1CCCCC1,0.83
same,photoluminescence quantum yield,in CC#N,0.01
same,photoluminescence quantum yield,in CC(C)=O,0.01
same,photoluminescence quantum yield,in CCOC(C)=O,0.19
same,photoluminescence quantum yield,in Cc1ccccc1,0.57
O=c1cc(-c2nc3ccccn3c2NC2CCCCC2)occ1OCc1ccccc1,photoluminescence quantum yield,in ClCCl,0.209
CCCN1c2ccccc2Sc2cc(/C=C\c3cc(=O)oc4cc(O)ccc34)ccc21,photoluminescence quantum yield,in ClC(Cl)Cl,0.74
CCC1(CC)c2cc(C#Cc3cccs3)ccc2-c2c1c1c(c3c2C(CC)(CC)c2cc(C#Cc4cccs4)ccc2-3)C(CC)(CC)c2cc(C#Cc3cccs3)ccc2-1,photoluminescence quantum yield,in C1CCOC1,0.58
CCC1=C(C)C2=Cc3c4ccccc4c4n3[B-](c3cc[n+](C)cc3)(Oc3ccccc3-4)[N+]2=C1C (stereo not drawn),photoluminescence quantum yield,in CO,0.58
same,photoluminescence quantum yield,in CS(C)=O,0.63
C(=C\c1ccncn1)/c1ccc(-c2ccc(N(c3ccccc3)c3ccccc3)cc2)cc1,photoluminescence quantum yield,in ClCCl,0.52
Nc1ccc2c(c1)Cc1ccccc1-2,photoluminescence quantum yield,in C1CCCCC1,0.74
same,photoluminescence quantum yield,in C1COCCO1,0.73
same,photoluminescence quantum yield,in CC#N,0.52
same,photoluminescence quantum yield,in CO,0.84
same,photoluminescence quantum yield,in O,0.2
CN(C)c1ccc(/C=C/C=C/c2nc3ccccc3s2)cc1,photoluminescence quantum yield,in CC#N,0.0068
same,photoluminescence quantum yield,in CCCCCC,0.022
same,photoluminescence quantum yield,in CCCCO,0.0044
same,photoluminescence quantum yield,in CCCO,0.0054
same,photoluminescence quantum yield,in CCO,0.0045
same,photoluminescence quantum yield,in CN(C)C=O,0.0064
same,photoluminescence quantum yield,in CO,0.0039
same,photoluminescence quantum yield,in Cc1ccccc1,0.0088
same,photoluminescence quantum yield,in ClCCl,0.0054
same,photoluminescence quantum yield,in OCC(O)CO,0.039
same,photoluminescence quantum yield,in OCCO,0.0062
CN(C)c1ccc(/C=C2\CC/C(=C\c3ccc(N(C)C)cc3)C2=O)cc1,photoluminescence quantum yield,in C1CCOC1,0.089
same,photoluminescence quantum yield,in C1COCCO1,0.08
same,photoluminescence quantum yield,in CC#N,0.11
same,photoluminescence quantum yield,in CC(C)=O,0.15
same,photoluminescence quantum yield,in CC(C)O,0.18
same,photoluminescence quantum yield,in CCO,0.11
same,photoluminescence quantum yield,in CCOC(C)=O,0.09
same,photoluminescence quantum yield,in CN(C)C=O,0.19
same,photoluminescence quantum yield,in CO,0.025
same,photoluminescence quantum yield,in CS(C)=O,0.2
same,photoluminescence quantum yield,in Cc1ccccc1,0.08
same,photoluminescence quantum yield,in ClC(Cl)(Cl)Cl,0.043
same,photoluminescence quantum yield,in ClC(Cl)Cl,0.13
same,photoluminescence quantum yield,in ClCCl,0.16
same,photoluminescence quantum yield,in S=C=S,0.1
CC1=c2ccccc2=[N+]2C1=Cc1c3ccccc3c(-c3[nH]c4ccccc4c3C)n1[B-]2(F)F,photoluminescence quantum yield,in ClCCl,0.08
CC1=C2C3=C(CCc4ccccc43)C(C)=[N+]2[B-](F)(F)n2c(C)c3c(c21)-c1ccccc1CC3,photoluminescence quantum yield,in CC#N,0.38
CCCCOc1ccc(/C=C/C=C/C=C/c2ccc([N+](=O)[O-])cc2)cc1,photoluminescence quantum yield,in CC1CCCCC1,0.25
same,photoluminescence quantum yield,in CC#N,0.014
same,photoluminescence quantum yield,in Cc1ccccc1,0.53
same,photoluminescence quantum yield,in ClCCl,0.06
O=c1c2ccccc2c2c(C#C[Si](c3ccccc3)(c3ccccc3)c3ccccc3)c3c(=O)c4ccccc4c3c(C#C[Si](c3ccccc3)(c3ccccc3)c3ccccc3)c12,photoluminescence quantum yield,in ClC(Cl)Cl,0.09
CNc1ccc2c(c1)C(=O)c1ccccc1-2,photoluminescence quantum yield,in C1CCCCC1,0.0073
same,photoluminescence quantum yield,in c1ccccc1,0.001
c1cc(-c2ccc3c(c2)CCCO3)ccc1-c1ccc2c(c1)CCCO2,photoluminescence quantum yield,in C1CCCCC1,0.6
Cc1cc(-c2ccc3ccccc3c2)cc(C)[o+]1,photoluminescence quantum yield,in ClCCl,0.64
COc1ccc(-n2nc(C#N)c(N3CCCC3)n2)cc1OC,photoluminescence quantum yield,in CC#N,0.996
CCCCC1(CCCC)c2cc(C#Cc3ccc(/C=C(\C)c4ccccc4)cc3)ccc2-c2ccc(C#Cc3ccc(/C=C(\C)c4ccccc4)cc3)cc21,photoluminescence quantum yield,in C1CCOC1,0.586
C#Cc1ccc(-c2c3nc(c(-c4ccc(C#C)cc4)c4ccc([nH]4)c(-c4cc(C(C)(C)C)cc(C(C)(C)C)c4)c4cc(c(-c5cc(C(C)(C)C)cc(C(C)(C)C)c5)c5ccc2[nH]5)C=N4)C=C3)cc1,photoluminescence quantum yield,in ClCCl,0.0269
COc1ccc(-c2nc3c([nH]2)=C2C=C(Cl)S[C@@]2(C)[C@]2(C)SC(Cl)=CC=32)cc1,photoluminescence quantum yield,in CC#N,0.002
CCCCCCCCn1c2cc(/C=C/c3ccc(N(c4ccccc4)c4ccccc4)cc3)ccc2c2cc3c(cc21)c1ccc(/C=C/c2ccc(N(c4ccccc4)c4ccccc4)cc2)cc1n3CCCCCCCC,photoluminescence quantum yield,in Cc1ccccc1,0.62
COc1cc(N(c2ccccc2)c2ccc(C=C(C#N)C#N)c(OC)c2)ccc1C=C(C#N)C#N,photoluminescence quantum yield,in C1COCCO1,0.035
same,photoluminescence quantum yield,in CC#N,0.008
same,photoluminescence quantum yield,in CC(C)=O,0.017
same,photoluminescence quantum yield,in CCOC(C)=O,0.085
same,photoluminescence quantum yield,in CN(C)C=O,0.073
same,photoluminescence quantum yield,in CO,0.039
same,photoluminescence quantum yield,in Cc1ccccc1,0.032
same,photoluminescence quantum yield,in ClC(Cl)Cl,0.076
same,photoluminescence quantum yield,in ClCCl,0.072
CC(C)c1cc(C(C)C)c(B2c3ccccc3Oc3cc(N4c5ccccc5C(C)(C)c5ccccc54)ccc32)c(C(C)C)c1,photoluminescence quantum yield,in Cc1ccccc1,1
N#CC1=C(N)n2c(=O)c3ccccc3c(=O)n2C1c1ccccc1 (stereo not drawn),photoluminescence quantum yield,in CS(C)=O,0.057
c1ccc(C2=C(c3ccccc3)c3cccc4c3c(cc3nc5c(-c6ccccc6)ccc(-c6ccccc6)c5nc34)O2)cc1,photoluminescence quantum yield,in ClCCl,0.23
Cc1ccc2cc(C)ccc2c1,photoluminescence quantum yield,in C1CCCCC1,0.59
CN(C)c1ccc(-c2ccc(-c3cc(-c4ccccc4)c(-c4ccccc4)c(-c4ccccc4)c3-c3ccccc3)cc2)cc1,photoluminescence quantum yield,in ClC(Cl)Cl,0.14
C[Si](C)(C)[Si](C)(C)c1ccc2cc3ccccc3cc2c1,photoluminescence quantum yield,in C1CCCCC1,0.22
same,photoluminescence quantum yield,in CC#N,0.08
Cc1ccc(-c2nc(-c3cccc(C#N)c3)[nH]c2-c2ccc(C)cc2)cc1,photoluminescence quantum yield,in CO,0.17
FC(F)(F)c1ccc(-c2ccc(-c3cc(-c4ccccn4)nc(-c4ccccn4)c3)cc2)cc1,photoluminescence quantum yield,in ClCCl,0.17
CC(C)(C)c1ccc(C#Cc2cc3ccc4cc(C#Cc5ccc(C(C)(C)C)cc5)cc5ccc(c2)c3c45)cc1,photoluminescence quantum yield,in ClCCl,0.14
COc1ccc2c(c1)N(c1ccc(C)cc1)c1cc3c(cc1=N2)Oc1c(cc(C(C)(C)C)cc1C(C)(C)C)N=3,photoluminescence quantum yield,in CCCCCC,0.35
C/C(=N\Nc1ccc(C#N)cc1)c1cccc(/C(C)=N/Nc2ccc(C#N)cc2)c1,photoluminescence quantum yield,in CO,0.14
CN1/C(=C/C=C/C2=[N+](CCCCCC(=O)O)c3ccc(S(=O)(=O)[O-])cc3C2(C)C)C(C)(C)c2cc(S(=O)(=O)[O-])ccc21,photoluminescence quantum yield,in O,0.04
c1cc2ccc1-c1ccc(cc1)-c1sc(c3c1OCCO3)-c1ccc(cc1)-c1ccc(cc1)-c1sc(c3c1OCCO3)-c1ccc(cc1)-c1ccc(cc1)-c1sc-2c2c1OCCO2,photoluminescence quantum yield,in C1CCOC1,0.34
CC(C)c1cc(C(C)C)c(B2c3cc(N4c5ccccc5C(C)(C)c5ccccc54)ccc3N(c3ccccc3)c3ccc(N4c5ccccc5C(C)(C)c5ccccc54)cc32)c(C(C)C)c1,photoluminescence quantum yield,in c1cc(-c2cccc(-n3c4ccccc4c4ccccc43)c2)cc(-n2c3ccccc3c3ccccc32)c1,0.95
Cc1ccc(C2=C3C=CC4=[N+]3[P-](=O)(=O)n3c2ccc3-c2ccc([nH]2)/C(c2ccc(C)cc2)=c2/cc/c(o2)=C(\c2ccc(C)cc2)c2ccc4[nH]2)cc1,photoluminescence quantum yield,in ClC(Cl)Cl,0.18
